Experimental data from patent US20190382396A1, “SALTS OF BICYCLO[1.1.1]PENTANE INHIBITORS OF DUAL LEUCINE ZIPPER (DLK) KINASE FOR THE TREATMENT OF DISEASE” (Board of Regents, The University of Texas System, priority 2018, published 2019).
Read-outs that look alike come from different tables or passages of the source.

What was measured:
Assay type in all cases: physicochemical
[1] = Dynamic vapor sorption (DVS), hygroscopicity
Protocol: Dynamic vapor sorption (“DVS”) was performed at 25° C., using approx 10-15 mg of sample and N2 gas at a flow rate of 200 mL/min, dm/dt=0.01% min, minimum dm/dt stability duration of 10 min, max equilibration time of 180 min, drying at 0% RH for 120 min, scanning from 0% RH to 90% RH to 0% RH with a step size of 10% RH.
Total cycling time varied, but in all cases was about 200-250 min.

[2] = Solubility in physiologically relevant solutions (SGF, FaSSIF, FeSSIF); conditions: 25±0.5° C.; for solubility at 24 h: 25 °C, thermodynamic from solid
Protocol: Solubility of the free base 1 and the selected salts 8, 9, 10, and 11 in physiologically relevant solutions were examined. For each material, aliquots were added to 2 ml vials containing 500 uL of either SGF, FaSSIF, or FeSSIF, which were then sealed. The mixtures were kept shaking by thermomixer at 700 rpm, 25±0.5° C. for 24 h to facilitate the dissolution and then centrifuged by 96-well plates at 3000 rpm for 2 min. The filter liquors were diluted with diluents (ACN/water, 50/50) and analyzed by HPLC.

[3] = Solubility of hydrogen fumarate salt 11 (1000 mg scale-up batch)
[4] = Polymorph formation of hydrogen fumarate salt 11 (slurry, anti-solvent, heat-cool); set-up: key to Observation 50° C. / observation rt / observation 60° C.: “s” = slurry; “c” = clear
Protocol: Formation of polymorphs of the hydrogen fumarate salt 11 was examined. About 15 mg of hydrogen fumarate salt 11 was combined with 0.5 mL of a selected organic solvent in a vial. The mixture was stirred at 700 RPM at 50° C. for 2 days. If a solid precipitate was present, the solid precipitate was then removed by centrifugation (14,000 RPM, 5 min) and dried under vacuum at 30° C. (Method I). If a solid precipitate was not present, the solvent was removed by evaporation under vacuum at 30° C. (Method II). In either case, the resulting material was evaluated by XRPD.
Polymorph formation was examined with a slurry method using various solvents. About 500 mg of hydrogen fumarate salt 11 was combined with 50 mL of DMSO and 1 mL DMF to afford a saturated solution. Anti-solvent (no more than 5x solution volume) chosen from EtOH, iPrOH, acetone, water, and EtOAc was added. In no case was a precipitate formed.
Polymorph formation was further examined with a heat-cool method using various solvents. About 100 mg of hydrogen fumarate salt 11 was combined with 1 mL of a selected solvent. The mixture was stirred at 700 RPM for 4 hrs at 60° C., then allowed to cool to room temperature. The cycle was repeated twice. If a solid precipitate was present, the solid precipitate was then removed by centrifugation and dried under vacuum at 30° C. (Method I). If a solid precipitate was not present, the solvent was removed by evaporation (Method II). In either case, the resulting material was evaluated by XRPD.

[5] = Thermogravimetric analysis / DSC weight loss; conditions: <120° C.
Protocol: Differential scanning calorimetry (“DSC”) was performed with a TA Q2000 instrument, using approx 1 mg of sample in a crimped Al pan, heating from room temperature to 300° C. at a rate of 10° C./min.
Thermogravimetric analysis (“TGA”) was performed with a TA Q5000 instrument, using approx 2-5 mg of sample in an open Pt pan, heating from room temperature to 300° C. at a rate of 10° C./min.

Structure (SMILES): CC(C)c1nc(-c2cnc(N)c(OC(F)(F)F)c2)cn1C12CC(N3CCOCC3)(C1)C2.O=C(O)/C=C/C(=O)O [Example 11, 5-(2-isopropyl-1-(3-morpholinobicyclo[1.1.1]pentan-1-yl)-1H-imidazol-4-yl)-3-(trifluoromethoxy)pyridin-2-amine hydrogen fumarate]
- Maximum sorption ([1]; DVS, 25° C.): 0.47%
- Hygroscopicity (0-40% RH) ([1]; DVS, 25° C., 0-40% RH): 0.1%
- Hygroscopicity (0-90% RH) ([1]; DVS, 25° C., 0-90% RH): 0.47%
- Change in mass (%) Desorption ([1]; DVS, Target % P/P0 0.0): −0.0114%
- Change in mass (%) Sorption ([1]; DVS, Target % P/P0 0.0): 0.0000%
- Change in mass (%) Desorption ([1]; DVS, Target % P/P0 10.0): 0.0209%
- Change in mass (%) Hysteresis ([1]; DVS, Target % P/P0 10.0): 0.0010%
- Change in mass (%) Sorption ([1]; DVS, Target % P/P0 10.0): 0.0200%
- Change in mass (%) Desorption ([1]; DVS, Target % P/P0 20.0): 0.0448%
- Change in mass (%) Hysteresis ([1]; DVS, Target % P/P0 20.0): 0.0067%
- Change in mass (%) Sorption ([1]; DVS, Target % P/P0 20.0): 0.0381%
- Change in mass (%) Desorption ([1]; DVS, Target % P/P0 30.0): 0.0866%
- Change in mass (%) Hysteresis ([1]; DVS, Target % P/P0 30.0): 0.0286%
- Change in mass (%) Sorption ([1]; DVS, Target % P/P0 30.0): 0.0581%
- Change in mass (%) Desorption ([1]; DVS, Target % P/P0 40.0): 0.1238%
- Change in mass (%) Hysteresis ([1]; DVS, Target % P/P0 40.0): 0.0267%
- Change in mass (%) Sorption ([1]; DVS, Target % P/P0 40.0): 0.0971%
- Change in mass (%) Desorption ([1]; DVS, Target % P/P0 50.0): 0.1695%
- Change in mass (%) Hysteresis ([1]; DVS, Target % P/P0 50.0): 0.0352%
- Change in mass (%) Sorption ([1]; DVS, Target % P/P0 50.0): 0.1343%
- Change in mass (%) Desorption ([1]; DVS, Target % P/P0 60.0): 0.2285%
- Change in mass (%) Hysteresis ([1]; DVS, Target % P/P0 60.0): 0.0457%
- Change in mass (%) Sorption ([1]; DVS, Target % P/P0 60.0): 0.1828%
- Change in mass (%) Desorption ([1]; DVS, Target % P/P0 70.0): 0.2885%
- Change in mass (%) Hysteresis ([1]; DVS, Target % P/P0 70.0): 0.0438%
- Change in mass (%) Sorption ([1]; DVS, Target % P/P0 70.0): 0.2447%
- Change in mass (%) Hysteresis ([1]; DVS, Target % P/P0 80.0): 0.0390%
- Change in mass (%) Sorption ([1]; DVS, Target % P/P0 80.0): 0.3295%
- Change in mass (%) Desorption ([1]; DVS, Target % P/P0 90.0): 0.4742%
- Change in mass (%) Sorption ([1]; DVS, Target % P/P0 90.0): 0.4742%
- Hygroscopicity; form change ([1]; form change after DVS): no change
- solubility at 24 h ([2]; simulated gastric fluid, SGF, read-out: Solubility SGF Conc): 5.81 mg/mL
- solubility at 24 h ([2]; FaSSIF, read-out: Solubility FaSSIF Conc): 0.459 mg/mL
- solubility at 24 h ([2]; FeSSIF, read-out: Solubility FeSSIF Conc): 0.646 mg/mL
- FaSSIF pH after 24 h ([2]; FaSSIF): 4.85
- FeSSIF pH after 24 h ([2]; FeSSIF): 4.84
- SGF pH after 24 h ([2]; SGF): 3.01
- solubility ([3]; aqueous with cosolvent or surfactant or cyclodextrin, 1/1 (v/v) Acetone/H2O, 50° C.): 50 to 100 mg/mL
- solubility ([3]; aqueous with cosolvent or surfactant or cyclodextrin, 1/1 (v/v) Acetone/H2O, RT): < 33 mg/mL
- solubility ([3]; aqueous with cosolvent or surfactant or cyclodextrin, 1/1 (v/v) EtOH/H2O, 50° C.): 50 to 100 mg/mL
- solubility ([3]; aqueous with cosolvent or surfactant or cyclodextrin, 1/1 (v/v) EtOH/H2O, RT): 20 to 33 mg/mL
- solubility ([3]; ethanol, organic solvent or mixture, EtOH, 50° C.): 20 to 33 mg/mL
- solubility ([3]; ethanol, organic solvent or mixture, EtOH, RT): < 20 mg/mL
- solubility ([3]; organic solvent or mixture, ACN, 50° C.): < 10 mg/mL
- solubility ([3]; organic solvent or mixture, ACN, RT): < 10 mg/mL
- solubility ([3]; organic solvent or mixture, Acetone, 50° C.): 10 to 20 mg/mL
- solubility ([3]; organic solvent or mixture, Acetone, RT): < 10 mg/mL
- solubility ([3]; organic solvent or mixture, DCM, 50° C.): < 10 mg/mL
- solubility ([3]; organic solvent or mixture, DCM, RT): < 10 mg/mL
- solubility ([3]; organic solvent or mixture, DMF, RT): > 100 mg/mL
- solubility ([3]; organic solvent or mixture, DMSO, 50° C.): > 100 mg/mL
- solubility ([3]; organic solvent or mixture, DMSO, RT): < 100 mg/mL
- solubility ([3]; organic solvent or mixture, Dioxane, 50° C.): 20 to 33 mg/mL
- solubility ([3]; organic solvent or mixture, Dioxane, RT): < 20 mg/mL
- solubility ([3]; organic solvent or mixture, EtOAc, 50° C.): < 10 mg/mL
- solubility ([3]; organic solvent or mixture, EtOAc, RT): < 10 mg/mL
- solubility ([3]; organic solvent or mixture, Heptane, 50° C.): < 10 mg/mL
- solubility ([3]; organic solvent or mixture, Heptane, RT): < 10 mg/mL
- solubility ([3]; organic solvent or mixture, IPA, 50° C.): 20 to 33 mg/mL
- solubility ([3]; organic solvent or mixture, IPA, RT): 10 to 20 mg/mL
- solubility ([3]; organic solvent or mixture, MEK, 50° C.): 10 to 20 mg/mL
- solubility ([3]; organic solvent or mixture, MEK, RT): < 10 mg/mL
- solubility ([3]; organic solvent or mixture, MTBE, 50° C.): < 10 mg/mL
- solubility ([3]; organic solvent or mixture, MTBE, RT): < 10 mg/mL
- solubility ([3]; organic solvent or mixture, MeOH, 50° C.): 50 to 100 mg/mL
- solubility ([3]; organic solvent or mixture, MeOH, RT): 25 to 50 mg/mL
- solubility ([3]; organic solvent or mixture, THF, 50° C.): 33 to 50 mg/mL
- solubility ([3]; organic solvent or mixture, THF, RT): < 10 mg/mL
- solubility ([3]; organic solvent or mixture, Toluene, 50° C.): < 10 mg/mL
- solubility ([3]; organic solvent or mixture, Toluene, RT): < 10 mg/mL
- solubility ([3]; water, H2O, 50° C.): 10 to 20 mg/mL
- solubility ([3]; water, H2O, RT): < 10 mg/mL
- observation 60° C. ([4]; heat-cool method, Acetone): s
- observation rt ([4]; heat-cool method, Acetone): s
- observation 60° C. ([4]; heat-cool method, EtOAc): s
- observation rt ([4]; heat-cool method, EtOAc): s
- observation 60° C. ([4]; heat-cool method, EtOH): s
- observation rt ([4]; heat-cool method, EtOH): s
- XRPD results ([4]; heat-cool method, THF): amorphous
- observation 60° C. ([4]; heat-cool method, THF): c
- observation rt ([4]; heat-cool method, THF): c
- observation 60° C. ([4]; heat-cool method, iPrOH): s
- observation rt ([4]; heat-cool method, iPrOH): s
- Observation 50° C. ([4]; slurry 50° C., 2 days, 1/1 (v/v) EtOH/H2O): c
- Observation 50° C. ([4]; slurry 50° C., 2 days, 1/1 (v/v) acetone/H2O): c
- Observation 50° C. ([4]; slurry 50° C., 2 days, Acetone): c
- Observation 50° C. ([4]; slurry 50° C., 2 days, CH2Cl2): s
- Observation 50° C. ([4]; slurry 50° C., 2 days, CH3CN): s
- Observation 50° C. ([4]; slurry 50° C., 2 days, Dioxane): c
- Observation 50° C. ([4]; slurry 50° C., 2 days, EtOAc): s
- Observation 50° C. ([4]; slurry 50° C., 2 days, EtOH): c
- Observation 50° C. ([4]; slurry 50° C., 2 days, H2O): s
- Observation 50° C. ([4]; slurry 50° C., 2 days, Heptane): s
- Observation 50° C. ([4]; slurry 50° C., 2 days, MeOH): c
- XRPD pattern ([4]; slurry 50° C., 2 days, MeOH): almost
- Observation 50° C. ([4]; slurry 50° C., 2 days, Toluene): s
- Observation 50° C. ([4]; slurry 50° C., 2 days, iPrOH): c
- weight loss (TGA, %) [5]: 0.11% (<120° C.)
